Results published in ChEMBL document CHEMBL5252541, “Repurposing antipsychotic drugs into antifungal agents: Synergistic combinations of azoles and bromperidol derivatives in the treatment of various fungal infections” (Eur J Med Chem, 2017).
The source made the active and inactive calls. No cut-off for these calls is given here.

Tests used:
[1] = system: Candida albicans; assay: Synergistic antifungal activity against Candida albicans ATCC 10231 assessed as compound MIC measured after 48 hrs in presence of voriconazole by checkboard based microplate reader analysis; assay type: functional
[2] = system: J774.A1; assay: Cytotoxicity against mouse J774.A1 cells assessed as cell survival at 16 microg/ml in presence of voriconazole by XTT assay; assay type: toxicity, cell-based; conditions: dose 16 µg/ml
[3] = system: J774.A1; assay: Cytotoxicity against mouse J774.A1 cells assessed as cell survival at 8 microg/ml by XTT assay; assay type: toxicity, cell-based; conditions: j774.a1, dose 8 µg/ml
[4] = system: Candida albicans; assay: Additive antifungal activity against Candida albicans ATCC 10231 assessed as fractional inhibitory concentration index measured for 72 hrs in presence of fluconazole; assay type: functional
[5] = Cytotoxicity against mouse J774.A1 cells assessed as cell survival at 32 microg/ml by XTT assay; assay type: toxicity, cell-based; conditions: at 32 µg/mL, read-out: Activity
[6] = system: Candida albicans; assay: Synergistic antifungal activity against Candida albicans ATCC 10231 assessed as compound MIC measured after 48 hrs in presence of ketoconazole by checkboard based microplate reader analysis; assay type: functional
[7] = system: Candida albicans; assay: Additive antifungal activity against Candida albicans ATCC MYA-1237 assessed as fractional inhibitory concentration index measured for 72 hrs in presence of posaconazole; assay type: functional
[8] = Cytotoxicity against human BEAS-2B cells assessed as cell survival at 8 microg/ml in presence of posaconazole by XTT assay; assay type: toxicity, cell-based; conditions: at 8 µg/mL, read-out: Activity
[9] = system: Candida albicans; assay: Fungicidal activity against Candida albicans ATCC 64124 assessed as reduction in colony forming units at 8 times MIC incubated for 24 hrs by time kill assay; assay type: functional, organism-based
[10] = system: Candida albicans; assay: Antifungal activity against Candida albicans ATCC 64124 measured after 48 hrs by broth microdilution analysis; assay type: functional
[11] = system: Candida albicans; assay: Additive antifungal activity against Candida albicans ATCC MYA-2876 assessed as fractional inhibitory concentration index measured for 72 hrs in presence of posaconazole; assay type: functional
[12] = system: Candida albicans; assay: Synergistic antifungal activity against Candida albicans ATCC 64124 assessed as compound MIC measured after 48 hrs in presence of fluconazole by checkboard based microplate reader analysis; assay type: functional
[13] = system: Candida albicans; assay: Synergistic antifungal activity against Candida albicans ATCC 10231 assessed as compound MIC measured after 48 hrs in presence of posaconazole by checkboard based microplate reader analysis; assay type: functional
[14] = system: BEAS-2B; assay: Cytotoxicity against human BEAS-2B cells assessed as cell survival at 64 microg/ml by XTT assay; assay type: toxicity, cell-based; conditions: dose 64 µg/ml
[15] = system: Candida albicans; assay: Partial synergistic antifungal activity against Candida albicans ATCC 10231 assessed as fractional inhibitory concentration index measured for 72 hrs in presence of itraconazole; assay type: functional
[16] = system: HEK293; assay: Cytotoxicity against human HEK293 cells assessed as cell survival at 64 microg/ml by XTT assay; assay type: toxicity, cell-based; conditions: dose 64 µg/ml
[17] = system: BEAS-2B; assay: Cytotoxicity against human BEAS-2B cells assessed as cell survival up to 4 microg/ml by XTT assay; assay type: toxicity, cell-based; conditions: dose < 4 µg/ml
[18] = system: Candida albicans; assay: Synergistic antifungal activity against Candida albicans ATCC 10231 assessed as compound MIC measured after 48 hrs in presence of itraconazole by checkboard based microplate reader analysis; assay type: functional
[19] = Cytotoxicity against human HEK293 cells assessed as cell survival at 1 to 16 microg/ml in presence of posaconazole by XTT assay; assay type: toxicity, cell-based; conditions: at 1 to 16 µg/mL, dose 1-16 µg/ml
[20] = system: Nakaseomyces glabratus; assay: Synergistic antifungal activity against Candida glabrata ATCC 2001 assessed as fractional inhibitory concentration index measured for 72 hrs in presence of voriconazole; assay type: functional
[21] = system: Candida albicans; assay: Synergistic antifungal activity against Candida albicans ATCC 10231 assessed as compound MIC measured after 48 hrs in presence of fluconazole by checkboard based microplate reader analysis; assay type: functional
[22] = system: Candida albicans; assay: Fungicidal activity against Candida albicans ATCC 64124 assessed as reduction in colony forming units at 2 to 8 times MIC incubated after 6 hrs in presence of posaconazole by time kill assay; assay type: functional, organism-based
[23] = system: HEK293; assay: Cytotoxicity against HEK293 cells assessed as cell survival up to 4 microg/ml by XTT assay; assay type: toxicity, cell-based; conditions: human, dose < 4 µg/ml

- MIC [1]: 32 µg/mL
- MIC [6]: 32 µg/mL
- MIC [10]: > 128 µg/mL
- MIC [12]: 64 µg/mL
- MIC [13]: 64 µg/mL
- MIC [18]: 64 µg/mL
- MIC [21]: 64 µg/mL
SMILES: O=C(CCCN1CCC(O)(c2ccc(Br)cc2)CC1)c1ccc(F)cc1 [BROMPERIDOL]
- Activity [2]: Non-Toxic
- Activity [3]: Non-Toxic
- fractional inhibitory concentration index (FICI) [4]: 1.5
- viability at 32 microg/ml [5]: 50%
- fractional inhibitory concentration index (FICI) [7]: 2
- viability at 8 microg/ml [8]: 71%
- Activity [9]: Active
- fractional inhibitory concentration index (FICI) [11]: 2
- Activity [14]: Non-Toxic
- fractional inhibitory concentration index (FICI) [15]: 0.75
- Activity [16]: Non-Toxic
- Activity [17]: Non-Toxic
- viability [19]: 80%
- fractional inhibitory concentration index (FICI) [20]: 0.51
- Activity [22]: Active
- Activity [23]: Non-Toxic
